Measurements from patent publication US20250042900A1 (priority 2022, published 2025).
Where a name gives a salt, the structure may show the parent alone. Read-outs that look alike come from different tables or passages of the source.

Legend:
[1] = target: Adrenergic Receptor α1A (ADRA1A) (Homo sapiens, UniProt P35348); experiment: Calcium flux secondary messenger assay, antagonist format; format: cell-based; details: read-out: IC50 (μM) Antag./Blocker/Inhibitor
[2] = target: T1, Lymphocyte Cell-Specific Protein-Tyrosine Kinase (Src family) (LCK) (Homo sapiens, UniProt P06239); experiment: Kinase binding assay (KINOMEscan); details: inhibitor, read-out: IC50 (μM) Antag./Blocker/Inhibitor
T1 construct: T7 phage fusion (most assays) or DNA tag for qPCR (the remaining kinases); made in house; host or cells: E. coli (BL21-derived, T7 phage display) or HEK-293
T1 sequence (P06239 whole entry, the tested form may be a part): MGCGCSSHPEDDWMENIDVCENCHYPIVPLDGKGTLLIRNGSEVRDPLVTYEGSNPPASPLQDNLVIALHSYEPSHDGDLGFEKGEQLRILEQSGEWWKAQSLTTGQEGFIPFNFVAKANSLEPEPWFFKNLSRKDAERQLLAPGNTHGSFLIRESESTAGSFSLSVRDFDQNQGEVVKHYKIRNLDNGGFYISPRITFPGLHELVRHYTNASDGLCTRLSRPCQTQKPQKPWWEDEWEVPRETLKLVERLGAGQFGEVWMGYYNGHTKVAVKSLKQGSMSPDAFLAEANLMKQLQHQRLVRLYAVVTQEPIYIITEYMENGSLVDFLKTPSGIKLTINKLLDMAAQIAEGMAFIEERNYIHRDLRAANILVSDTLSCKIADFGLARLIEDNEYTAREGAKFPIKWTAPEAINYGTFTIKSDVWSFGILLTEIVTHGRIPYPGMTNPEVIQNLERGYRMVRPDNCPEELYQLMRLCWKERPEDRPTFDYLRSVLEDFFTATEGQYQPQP

[3] = target: Adrenergic Receptor β2 (ADRB2) (Homo sapiens, UniProt P07550); experiment: cAMP secondary messenger assay, antagonist format; format: cell-based; details: read-out: IC50 (μM) Antag./Blocker/Inhibitor
[4] = target: Muscarinic acetylcholine Receptor M2 (CHRM2) (Homo sapiens, UniProt P08172); experiment: cAMP secondary messenger assay, antagonist format; format: cell-based; details: read-out: IC50 (μM) Antag./Blocker/Inhibitor
Sequence of Muscarinic acetylcholine Receptor M2 (CHRM2) (P08172 whole entry): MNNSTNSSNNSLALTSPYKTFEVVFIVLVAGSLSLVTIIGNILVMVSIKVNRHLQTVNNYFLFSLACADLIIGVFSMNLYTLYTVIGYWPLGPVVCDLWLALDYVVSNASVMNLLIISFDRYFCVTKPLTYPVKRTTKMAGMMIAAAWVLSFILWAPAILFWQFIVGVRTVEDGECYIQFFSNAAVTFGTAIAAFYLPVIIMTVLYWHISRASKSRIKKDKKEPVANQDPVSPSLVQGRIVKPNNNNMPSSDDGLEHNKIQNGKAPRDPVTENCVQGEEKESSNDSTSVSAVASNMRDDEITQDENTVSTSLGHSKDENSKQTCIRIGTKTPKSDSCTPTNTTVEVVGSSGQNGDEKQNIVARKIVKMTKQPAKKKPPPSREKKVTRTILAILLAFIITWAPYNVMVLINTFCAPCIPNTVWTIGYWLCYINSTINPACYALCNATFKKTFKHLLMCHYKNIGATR

[5] = target: HTR2A (5-hydroxytryptamine (serotonin) receptor 2A) (Homo sapiens, UniProt P28223); experiment: In vitro activity at 5-HT2AR, agonist mode (calcium flux secondary messenger assay); format: cell-based; details: for EC50: agonist
Sequence of HTR2A (5-hydroxytryptamine (serotonin) receptor 2A) (P28223 whole entry): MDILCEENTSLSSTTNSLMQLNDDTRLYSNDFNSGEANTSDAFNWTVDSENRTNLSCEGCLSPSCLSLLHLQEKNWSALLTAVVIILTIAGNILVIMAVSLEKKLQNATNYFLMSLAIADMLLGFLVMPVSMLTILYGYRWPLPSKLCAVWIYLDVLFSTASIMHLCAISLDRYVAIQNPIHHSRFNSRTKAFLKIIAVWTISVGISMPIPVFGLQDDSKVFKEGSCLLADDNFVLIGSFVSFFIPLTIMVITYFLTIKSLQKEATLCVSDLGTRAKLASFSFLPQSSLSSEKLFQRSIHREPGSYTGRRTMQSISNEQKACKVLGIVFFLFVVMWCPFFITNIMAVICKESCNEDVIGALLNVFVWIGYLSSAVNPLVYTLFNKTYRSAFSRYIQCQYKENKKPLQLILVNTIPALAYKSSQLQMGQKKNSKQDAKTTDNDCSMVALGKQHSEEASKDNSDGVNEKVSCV

[6] = target: Cannabinoid Receptor 1 (CNR1) (Homo sapiens, UniProt P21554); experiment: cAMP secondary messenger assay, antagonist format; format: cell-based; details: read-out: IC50 (μM) Antag./Blocker/Inhibitor
hERG = hERG (Homo sapiens, UniProt Q12809); experiment: Ion channel assay, blocker format; format: cell-based; details: read-out: IC50 (μM) Antag./Blocker/Inhibitor
Sequence of hERG (Q12809 whole entry): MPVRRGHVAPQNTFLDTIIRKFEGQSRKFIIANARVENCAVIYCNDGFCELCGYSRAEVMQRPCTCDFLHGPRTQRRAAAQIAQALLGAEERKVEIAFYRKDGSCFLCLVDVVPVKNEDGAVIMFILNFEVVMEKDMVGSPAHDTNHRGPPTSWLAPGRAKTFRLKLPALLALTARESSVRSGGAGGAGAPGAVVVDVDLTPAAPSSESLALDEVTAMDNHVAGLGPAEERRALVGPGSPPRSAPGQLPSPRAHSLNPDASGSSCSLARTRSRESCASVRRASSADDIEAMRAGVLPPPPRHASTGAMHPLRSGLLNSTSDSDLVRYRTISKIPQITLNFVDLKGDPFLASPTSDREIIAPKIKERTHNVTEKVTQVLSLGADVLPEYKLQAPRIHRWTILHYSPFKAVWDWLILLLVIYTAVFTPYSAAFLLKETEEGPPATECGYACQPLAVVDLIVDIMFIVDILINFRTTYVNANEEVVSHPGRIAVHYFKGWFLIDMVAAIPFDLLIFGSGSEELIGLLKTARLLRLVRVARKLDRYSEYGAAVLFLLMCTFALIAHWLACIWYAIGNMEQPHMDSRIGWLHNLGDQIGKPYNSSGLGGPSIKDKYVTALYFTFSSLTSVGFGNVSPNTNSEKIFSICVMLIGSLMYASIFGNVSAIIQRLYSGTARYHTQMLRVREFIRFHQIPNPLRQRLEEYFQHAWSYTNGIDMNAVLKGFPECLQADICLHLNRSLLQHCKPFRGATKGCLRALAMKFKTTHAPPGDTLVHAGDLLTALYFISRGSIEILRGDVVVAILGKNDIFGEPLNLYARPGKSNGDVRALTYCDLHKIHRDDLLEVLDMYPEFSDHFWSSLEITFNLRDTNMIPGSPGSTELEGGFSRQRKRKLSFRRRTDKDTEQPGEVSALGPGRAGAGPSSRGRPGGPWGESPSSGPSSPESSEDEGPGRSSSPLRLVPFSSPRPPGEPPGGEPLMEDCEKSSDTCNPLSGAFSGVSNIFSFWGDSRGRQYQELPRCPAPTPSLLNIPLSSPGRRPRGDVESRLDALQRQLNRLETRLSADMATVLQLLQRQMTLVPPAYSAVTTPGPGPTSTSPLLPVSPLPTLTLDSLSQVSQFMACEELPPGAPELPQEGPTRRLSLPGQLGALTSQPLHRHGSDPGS

[7] = target: Opioid Receptor Kappa 1 (OPRK1) (Homo sapiens, UniProt P41145); experiment: cAMP secondary messenger assay, agonist format; format: cell-based; details: read-out: EC50 (μM) Agonist/Opener
[8] = target: Cholecystokinin Receptor A (CCKAR) (Homo sapiens, UniProt P32238); experiment: Calcium flux secondary messenger assay, antagonist format; format: cell-based; details: read-out: IC50 (μM) Antag./Blocker/Inhibitor
[9] = target: Opioid Receptor Delta 1 (OPRD1) (Homo sapiens, UniProt P41143); experiment: cAMP secondary messenger assay, antagonist format; format: cell-based; details: read-out: IC50 (μM) Antag./Blocker/Inhibitor
Sequence of Opioid Receptor Delta 1 (OPRD1) (P41143 whole entry): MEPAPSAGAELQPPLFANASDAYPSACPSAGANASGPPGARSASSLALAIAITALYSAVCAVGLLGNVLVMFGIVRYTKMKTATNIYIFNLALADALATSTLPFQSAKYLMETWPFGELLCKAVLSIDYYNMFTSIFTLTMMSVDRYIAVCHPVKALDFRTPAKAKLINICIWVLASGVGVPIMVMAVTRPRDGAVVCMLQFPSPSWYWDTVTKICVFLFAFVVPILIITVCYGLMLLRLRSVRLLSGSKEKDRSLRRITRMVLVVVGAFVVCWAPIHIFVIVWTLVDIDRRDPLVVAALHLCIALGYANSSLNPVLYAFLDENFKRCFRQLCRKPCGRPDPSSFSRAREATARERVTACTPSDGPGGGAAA

[10] = target: Nuclear Hormone Glucocorticoid Receptor (GR) (Homo sapiens, UniProt P04150); experiment: NHR Protein Interaction assay, antagonist format; format: cell-based; details: read-out: IC50 (μM) Antag./Blocker/Inhibitor
Sequence of Nuclear Hormone Glucocorticoid Receptor (GR) (P04150 whole entry): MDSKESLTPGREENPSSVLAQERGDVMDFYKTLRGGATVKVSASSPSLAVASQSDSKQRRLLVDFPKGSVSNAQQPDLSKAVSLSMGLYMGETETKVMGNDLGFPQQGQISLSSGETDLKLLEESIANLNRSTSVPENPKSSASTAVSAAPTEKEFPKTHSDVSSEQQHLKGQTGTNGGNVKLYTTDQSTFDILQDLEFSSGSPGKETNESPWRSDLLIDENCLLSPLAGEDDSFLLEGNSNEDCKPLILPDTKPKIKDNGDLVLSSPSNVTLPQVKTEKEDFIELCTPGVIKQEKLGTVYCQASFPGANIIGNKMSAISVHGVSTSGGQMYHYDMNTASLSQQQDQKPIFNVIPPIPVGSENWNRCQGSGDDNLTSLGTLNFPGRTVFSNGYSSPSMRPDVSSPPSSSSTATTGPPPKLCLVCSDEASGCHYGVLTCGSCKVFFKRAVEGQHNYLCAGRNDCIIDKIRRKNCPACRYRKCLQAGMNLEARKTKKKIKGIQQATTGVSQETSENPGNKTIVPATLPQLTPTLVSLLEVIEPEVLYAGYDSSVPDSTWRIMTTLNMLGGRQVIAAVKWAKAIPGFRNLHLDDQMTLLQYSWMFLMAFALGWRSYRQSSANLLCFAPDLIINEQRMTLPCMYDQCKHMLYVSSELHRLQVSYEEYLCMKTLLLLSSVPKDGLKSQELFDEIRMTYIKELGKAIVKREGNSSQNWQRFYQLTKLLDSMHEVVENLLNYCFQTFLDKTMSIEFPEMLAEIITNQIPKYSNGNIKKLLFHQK

[11] = target: Arginine Vasopressin Receptor 1A (AVPR1A) (Homo sapiens, UniProt P37288); experiment: Calcium flux secondary messenger assay, agonist format; format: cell-based; details: read-out: EC50 (μM) Agonist/Opener
Sequence of Arginine Vasopressin Receptor 1A (AVPR1A) (P37288 whole entry): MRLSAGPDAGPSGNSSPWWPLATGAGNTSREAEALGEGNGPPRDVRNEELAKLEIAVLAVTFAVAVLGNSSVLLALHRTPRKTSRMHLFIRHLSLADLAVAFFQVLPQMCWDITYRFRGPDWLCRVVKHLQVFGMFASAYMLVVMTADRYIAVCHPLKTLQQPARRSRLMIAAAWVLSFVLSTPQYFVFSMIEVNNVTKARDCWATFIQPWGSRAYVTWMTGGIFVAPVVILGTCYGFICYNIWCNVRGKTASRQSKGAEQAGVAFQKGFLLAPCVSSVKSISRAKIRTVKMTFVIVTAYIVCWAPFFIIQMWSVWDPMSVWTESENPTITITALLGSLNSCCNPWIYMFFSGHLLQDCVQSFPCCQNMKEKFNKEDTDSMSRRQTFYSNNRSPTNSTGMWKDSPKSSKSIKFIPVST

AChE = target: T2, AChE (Homo sapiens, UniProt P22303); experiment: Enzymatic assay AChE; format: biochemical; details: inhibitor, read-out: IC50 (μM) Antag./Blocker/Inhibitor
T2 construct: purchased R&D Systems
T2 sequence (P22303 32-614): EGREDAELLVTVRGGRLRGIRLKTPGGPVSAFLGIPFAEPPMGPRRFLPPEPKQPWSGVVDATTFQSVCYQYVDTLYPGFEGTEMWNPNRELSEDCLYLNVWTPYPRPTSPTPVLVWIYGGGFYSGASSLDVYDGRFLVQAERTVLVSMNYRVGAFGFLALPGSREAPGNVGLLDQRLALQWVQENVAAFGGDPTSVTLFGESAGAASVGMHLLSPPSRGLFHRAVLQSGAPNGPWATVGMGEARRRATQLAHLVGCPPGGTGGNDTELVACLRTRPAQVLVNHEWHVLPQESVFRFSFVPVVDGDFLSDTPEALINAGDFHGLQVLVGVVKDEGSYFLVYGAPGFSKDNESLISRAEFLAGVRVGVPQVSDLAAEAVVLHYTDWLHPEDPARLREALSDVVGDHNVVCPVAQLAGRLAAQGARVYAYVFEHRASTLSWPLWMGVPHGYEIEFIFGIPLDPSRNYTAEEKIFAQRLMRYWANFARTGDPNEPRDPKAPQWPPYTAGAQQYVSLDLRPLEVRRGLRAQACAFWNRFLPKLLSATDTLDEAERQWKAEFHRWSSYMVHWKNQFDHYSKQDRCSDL

## CN(C)CCc1ccn2ccccc12 [28-12 oxalate, 2-(indolizin-1-yl)-N, N-dimethylethan-1-amine oxalate]
[1]
  IC50: 2.31 µM
[2]
  IC50: > 30 µM
[3]
  IC50: 10.2 µM
[4]
  IC50: > 30 µM
[5]
  agonist effects at 5-HT2AR (in words): partial agonist effects
[5]; 5-HT2A, Calcium Flux, read-out: EC50 (μM) Agonist/Opener
  EC50: 0.052 µM
[5]; ten concentrations up to 30 μM, estimated, read-out: EC50 at 5-HT2AR
  EC50: ~0.0522 µM
[5]; of the response produced by 5-HT, read-out: maximum effect at 5-HT2AR
  Emax: ~30%
[6]
  IC50: > 30 µM
hERG
  IC50: > 30 µM
[7]
  EC50: > 30 µM
[8]
  IC50: > 30 µM
[9]
  IC50: > 30 µM
[10]
  IC50: 17.1 µM
[11]
  EC50: > 30 µM
AChE
  IC50: > 30 µM
